Measured values: article PMC5560747, “Computational-experimental approach to drug-target interaction mapping: A case study on kinase inhibitors” (PLoS Computational Biology, 2017)

Key:
Test in all cases: cell-free ADP-Glo Kinase Assay
Assay type in all cases: biochemical
Settings in all cases: read-out: Experimental validation pIC50 (converted)
BRK = BRK (Homo sapiens, UniProt Q13882)
FYN A = FYN A (Homo sapiens, UniProt P06241)
AXL = target: T1, AXL (Homo sapiens, UniProt P30530)
T1 sequence (P30530 26-894): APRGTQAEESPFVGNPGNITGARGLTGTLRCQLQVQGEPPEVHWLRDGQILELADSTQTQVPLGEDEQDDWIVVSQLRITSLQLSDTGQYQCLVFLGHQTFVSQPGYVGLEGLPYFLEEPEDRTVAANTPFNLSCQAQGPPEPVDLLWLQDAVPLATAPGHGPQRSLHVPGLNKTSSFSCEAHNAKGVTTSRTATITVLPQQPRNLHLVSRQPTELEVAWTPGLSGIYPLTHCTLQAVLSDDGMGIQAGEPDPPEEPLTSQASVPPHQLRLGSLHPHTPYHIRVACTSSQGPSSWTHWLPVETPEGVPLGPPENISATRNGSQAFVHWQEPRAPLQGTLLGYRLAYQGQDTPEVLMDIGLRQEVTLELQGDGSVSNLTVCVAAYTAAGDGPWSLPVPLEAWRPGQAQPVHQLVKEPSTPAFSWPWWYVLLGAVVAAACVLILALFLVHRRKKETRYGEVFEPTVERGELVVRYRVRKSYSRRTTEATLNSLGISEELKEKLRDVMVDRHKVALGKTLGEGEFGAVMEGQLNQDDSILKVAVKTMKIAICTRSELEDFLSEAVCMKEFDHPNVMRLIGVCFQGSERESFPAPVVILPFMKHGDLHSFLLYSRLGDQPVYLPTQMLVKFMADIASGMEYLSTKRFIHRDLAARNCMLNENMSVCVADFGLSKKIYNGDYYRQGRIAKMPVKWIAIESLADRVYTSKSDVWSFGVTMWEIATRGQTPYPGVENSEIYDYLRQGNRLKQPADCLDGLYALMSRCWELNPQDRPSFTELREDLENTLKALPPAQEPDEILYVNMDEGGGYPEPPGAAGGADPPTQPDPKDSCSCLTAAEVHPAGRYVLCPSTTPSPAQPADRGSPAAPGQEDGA

SRC = SRC (Homo sapiens, UniProt P12931)
Chain of SRC (P12931 whole entry): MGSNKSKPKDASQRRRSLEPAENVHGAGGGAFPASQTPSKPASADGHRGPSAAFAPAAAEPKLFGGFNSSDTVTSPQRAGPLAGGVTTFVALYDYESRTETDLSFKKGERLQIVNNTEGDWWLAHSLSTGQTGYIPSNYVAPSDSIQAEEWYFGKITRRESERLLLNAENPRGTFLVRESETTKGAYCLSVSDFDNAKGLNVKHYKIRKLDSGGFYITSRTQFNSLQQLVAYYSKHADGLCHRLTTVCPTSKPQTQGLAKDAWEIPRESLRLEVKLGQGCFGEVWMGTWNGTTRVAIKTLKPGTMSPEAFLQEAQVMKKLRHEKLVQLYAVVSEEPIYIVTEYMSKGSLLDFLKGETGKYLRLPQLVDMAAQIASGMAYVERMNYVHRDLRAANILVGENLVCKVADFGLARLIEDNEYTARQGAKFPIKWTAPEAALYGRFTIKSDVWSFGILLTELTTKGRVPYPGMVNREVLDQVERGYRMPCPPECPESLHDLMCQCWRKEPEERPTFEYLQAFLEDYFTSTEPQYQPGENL

Chain of FYN A (P06241 whole entry): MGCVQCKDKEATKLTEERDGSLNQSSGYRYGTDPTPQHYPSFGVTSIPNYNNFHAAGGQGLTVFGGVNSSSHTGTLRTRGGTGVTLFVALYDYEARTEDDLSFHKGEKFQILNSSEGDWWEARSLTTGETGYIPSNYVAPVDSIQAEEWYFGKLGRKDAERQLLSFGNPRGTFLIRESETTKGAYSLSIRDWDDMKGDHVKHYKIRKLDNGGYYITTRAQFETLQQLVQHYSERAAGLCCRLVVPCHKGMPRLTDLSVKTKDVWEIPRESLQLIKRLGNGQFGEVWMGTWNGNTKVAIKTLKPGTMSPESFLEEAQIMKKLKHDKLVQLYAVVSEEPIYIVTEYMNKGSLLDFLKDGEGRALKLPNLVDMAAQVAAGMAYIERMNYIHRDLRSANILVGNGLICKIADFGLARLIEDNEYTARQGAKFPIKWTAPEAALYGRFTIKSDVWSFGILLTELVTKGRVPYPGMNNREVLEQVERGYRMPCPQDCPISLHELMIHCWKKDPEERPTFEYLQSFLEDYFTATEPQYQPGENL
Chain of BRK (Q13882 whole entry): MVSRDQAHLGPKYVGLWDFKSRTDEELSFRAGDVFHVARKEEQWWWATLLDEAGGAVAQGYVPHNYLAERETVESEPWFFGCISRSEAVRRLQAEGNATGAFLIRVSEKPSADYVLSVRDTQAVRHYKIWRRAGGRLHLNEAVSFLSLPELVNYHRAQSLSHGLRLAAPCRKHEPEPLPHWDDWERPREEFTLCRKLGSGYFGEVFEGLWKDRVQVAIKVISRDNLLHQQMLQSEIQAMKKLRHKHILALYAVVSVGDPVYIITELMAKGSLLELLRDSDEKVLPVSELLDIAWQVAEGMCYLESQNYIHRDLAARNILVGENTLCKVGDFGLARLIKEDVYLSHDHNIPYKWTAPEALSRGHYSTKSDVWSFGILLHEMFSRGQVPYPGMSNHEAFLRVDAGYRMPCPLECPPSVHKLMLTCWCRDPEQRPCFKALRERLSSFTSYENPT

- IC50 (BRK): 166 nM
- IC50 (FYN A): 135 nM
- IC50 (AXL): 3090 nM
- IC50 (SRC): 724 nM
Structure (SMILES): COc1cc2c(Oc3ccc4[nH]c(C)cc4c3F)ncnc2cc1OCCCN1CCCC1 [Cediranib]
